The text below walks through data of ChEMBL document CHEMBL1208694, “Aryl sulfonamides containing tetralin allylic amines as potent and selective bradykinin B1 receptor antagonists” (Bioorg Med Chem Lett, 2010).

pIC50, pKi: −log10 of the molar value.

In data set [1] the target is T1, B1 bradykinin receptor (Homo sapiens, UniProt P46663).
T1 sequence (P46663 whole entry): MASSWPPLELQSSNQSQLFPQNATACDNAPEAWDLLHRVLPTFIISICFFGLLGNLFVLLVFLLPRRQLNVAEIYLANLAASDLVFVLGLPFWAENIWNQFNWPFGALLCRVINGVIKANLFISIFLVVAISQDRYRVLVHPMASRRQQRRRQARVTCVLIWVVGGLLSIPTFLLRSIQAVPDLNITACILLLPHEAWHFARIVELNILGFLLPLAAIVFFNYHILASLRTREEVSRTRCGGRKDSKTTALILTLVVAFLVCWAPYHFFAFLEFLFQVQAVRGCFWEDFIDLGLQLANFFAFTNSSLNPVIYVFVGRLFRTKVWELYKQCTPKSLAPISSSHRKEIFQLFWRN
Nature of the data set: Displacement of [3H]Lys-desArg9-BK from human bradykinin B1 receptor. (In general: Loss of bound radioactivity is the signal in a displacement assay; it reports binding, not function.)

For data set [2], the target named is T1, B1 bradykinin receptor. The data set is described as follows: Antagonist activity at human bradykinin B1 receptor assessed as inhibition of Lys-desArg9-BK-induced calcium flux. It counts as functional. For orientation: Calcium flux is commonly read through the fluorescence of an indicator in the cells.
The nature of data set [3]: Half life in rat at 1 mg/kg, iv. It counts as ADME, organism-based. Set-up: dose 1 mg/kg, route intravenous. To be noted: in vivo.
Data set [4] can be described thus: Volume of distribution at steady state in rat at 1 mg/kg, iv. It counts as ADME, organism-based. Particulars: in vivo, read-out: Vdss. Set-up: dose 1 mg/kg, route intravenous.
A short description of data set [5]: Metabolic stability in rat liver microsomes. Particulars: read-out: Stability. It counts as ADME, Microsome. Background: Liver microsomes are vesicles of endoplasmic reticulum, rich in cytochrome P450 enzymes.
Data set [6] can be described thus: Oral bioavailability in rat at 10 mg/kg. Particulars: in vivo.
A short description of data set [7]: Clearance in rat at 1 mg/kg, iv. It counts as ADME, organism-based. Set-up: dose 1 mg/kg, route intravenous. Particulars: in vivo.

Broadly, the pKi is the negative decadic logarithm of the Ki, by convention in mol/L. Broadly, the pIC50 is the IC50 on a negative log10 scale, so that one unit is a factor of ten. Compound `CC(CN1CCCCC1)c1ccc2c(c1)CCC[C@H]2NC(=O)C[C@@H](NS(=O)(=O)c1cccc(C(F)(F)F)c1)c1ccccc1` (stereo partly specified) showed a pKi at B1 bradykinin receptor [1] of 7.47. At B1 bradykinin receptor [2], the pIC50 is 6.50.
As for `O=C(C[C@@H](NS(=O)(=O)c1cccc(C(F)(F)F)c1)c1ccccc1)N[C@@H]1CCCc2cc(C3(CN4CCCCC4)CC3)ccc21`, the pKi on B1 bradykinin receptor [1] was 7.85. Moreover, the pIC50 at B1 bradykinin receptor [2] is 7.06.
The matching figures for `C=C(CN1CCCCC1)c1ccc2c(c1)CCC[C@H]2NC(=O)C[C@@H](NS(=O)(=O)c1cccc(C(F)(F)F)c1)c1ccccc1`: 8.48 and 7.39.
The half-life is how long it takes for the measured level to halve. Read a low half-life as fast loss. One may read the bioavailability as dose-corrected exposure relative to a reference, in per cent. As a reminder, the clearance is the volume of plasma or blood freed of the substance per unit of time. The low end stands for inefficient removal, the high end for efficient removal. In turn, `C=C(CN1CCCC1)c1ccc2c(c1)CCC[C@H]2NC(=O)C[C@@H](NS(=O)(=O)c1cccc(C(F)(F)F)c1)c1ccccc1` showed a pKi at B1 bradykinin receptor [1] of 9.15. The half-life in data set [3] was 1.5 h. For the same compound, the Vd in data set [4] is 3.62 L/kg. For the same compound, in data set [5], the microsomal CLint is 282 µL/min/mg. In addition, in data set [6], the bioavailability is 10%. The same compound gave a clearance in data set [7] of 30.6 mL/min/kg. On B1 bradykinin receptor [2], the pIC50 was 8.01.
For `C=C(CN1CC[C@H](O)C1)c1ccc2c(c1)CCC[C@H]2NC(=O)C[C@@H](NS(=O)(=O)c1cccc(C(F)(F)F)c1)c1ccccc1`, the pKi on B1 bradykinin receptor [1] was 8.46. Besides, at B1 bradykinin receptor [2], the pIC50 is 8.41.
Taken in the same sequence, the figures for `C=C(CN1CC[C@@H](O)C1)c1ccc2c(c1)CCC[C@H]2NC(=O)C[C@@H](NS(=O)(=O)c1cccc(C(F)(F)F)c1)c1ccccc1` were 7.92 and 7.82.
`C=C(CN1CCC1)c1ccc2c(c1)CCC[C@H]2NC(=O)C[C@@H](NS(=O)(=O)c1cccc(C(F)(F)F)c1)c1ccccc1` gave a pKi on B1 bradykinin receptor [1] of 7.92. Besides, the pIC50 at B1 bradykinin receptor [2] was 6.69.
In turn, `C=C(CN(C)C)c1ccc2c(c1)CCC[C@H]2NC(=O)C[C@@H](NS(=O)(=O)c1cccc(C(F)(F)F)c1)c1ccccc1` gave a pKi on B1 bradykinin receptor [1] of 7.11. In addition, at B1 bradykinin receptor [2], the pIC50 is 6.81.
At B1 bradykinin receptor [1], `C=C(CNCCO)c1ccc2c(c1)CCC[C@H]2NC(=O)C[C@@H](NS(=O)(=O)c1cccc(C(F)(F)F)c1)c1ccccc1` gave a negative-log Ki (pKi) of 7.68. Moreover, the pIC50 at B1 bradykinin receptor [2] is 7.49.
`C=C(CNCCOC)c1ccc2c(c1)CCC[C@H]2NC(=O)C[C@@H](NS(=O)(=O)c1cccc(C(F)(F)F)c1)c1ccccc1` gave a pKi at B1 bradykinin receptor [1] of 7.38. For the same compound, the pIC50 at B1 bradykinin receptor [2] was 7.64.
The matching figures for `C=C(CNCC1CC1)c1ccc2c(c1)CCC[C@H]2NC(=O)C[C@@H](NS(=O)(=O)c1cccc(C(F)(F)F)c1)c1ccccc1`: 7.80 and 6.98.
In the case of `C=C(CNC(C)(C)C)c1ccc2c(c1)CCC[C@H]2NC(=O)C[C@@H](NS(=O)(=O)c1cccc(C(F)(F)F)c1)c1ccccc1`, at B1 bradykinin receptor [1], the pKi is 7.96. On B1 bradykinin receptor [2], the pIC50 was 7.11.
`C=C(CNC(C)C)c1ccc2c(c1)CCC[C@H]2NC(=O)C[C@@H](NS(=O)(=O)c1cccc(C(F)(F)F)c1)c1ccccc1` had a pKi on B1 bradykinin receptor [1] of 8.34. In data set [3], this compound gave a half-life of 2.4 h. Moreover, the Vd in data set [4] was 5.86 L/kg. Further, the microsomal CLint in data set [5] turned out to be 240 µL/min/mg. In data set [6], this compound returned a bioavailability of 15%. In data set [7], this compound showed a clearance of 33.2 mL/min/kg. Moreover, the pIC50 at B1 bradykinin receptor [2] is 7.38.
`C=C(CNC1CCC1)c1ccc2c(c1)CCC[C@H]2NC(=O)C[C@@H](NS(=O)(=O)c1cccc(C(F)(F)F)c1)c1ccccc1` had a pKi on B1 bradykinin receptor [1] of 8.47. In addition, the pIC50 on B1 bradykinin receptor [2] is 7.36.
In the case of `C=C(CNC1CCCC1)c1ccc2c(c1)CCC[C@H]2NC(=O)C[C@@H](NS(=O)(=O)c1cccc(C(F)(F)F)c1)c1ccccc1`, the pKi at B1 bradykinin receptor [1] is 7.52. For the same compound, at B1 bradykinin receptor [2], the pIC50 is 7.33.
As to `C=C(CN1CCCC1)c1ccc2c(c1)CCC[C@H]2NC(=O)C[C@@H](NS(=O)(=O)c1cccc(C(F)(F)F)c1)c1ccc(F)cc1`, the pIC50 at B1 bradykinin receptor [2] is 8.89.
